Measurements reported in paper PMC12040169 (PLOS Biology, 2025).
≈ marks a conversion by molar mass, not a printed value. Read-outs that look alike come from different tables or passages of the source.

What was measured:
[1] = target: T1, acyl-modification-free ctFabH (Chlamydia trachomatis, UniProt O84242); assay: intact protein LC/MS; type: biochemical; details: covalent acyl-enzyme intermediate; 10 µM protein, 50 µM acyl-CoA, pH 7.0
T1 construct: gene fabH
T1 sequence (O84242 2-327): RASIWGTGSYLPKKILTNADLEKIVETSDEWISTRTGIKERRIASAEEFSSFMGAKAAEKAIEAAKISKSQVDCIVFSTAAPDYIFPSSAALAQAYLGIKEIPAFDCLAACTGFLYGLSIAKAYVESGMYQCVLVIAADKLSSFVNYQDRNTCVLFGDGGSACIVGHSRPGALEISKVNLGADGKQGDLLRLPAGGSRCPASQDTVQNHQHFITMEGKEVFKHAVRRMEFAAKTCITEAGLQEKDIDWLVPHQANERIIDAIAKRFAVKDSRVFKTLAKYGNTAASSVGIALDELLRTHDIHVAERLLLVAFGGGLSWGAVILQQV

[2] = target: T2, ctFabH (CTL2 FabH), His6(-fMet)SG-ctFabH (Chlamydia trachomatis, UniProt O84242); assay: continuous UV assay of acetoacetyl-CoA at […] nm; type: biochemical; details: covalent; 20 µM enzyme, 30 µM compound, 100 µM acetyl-CoA, 100 µM malonyl-CoA, pH 8.0, 25 °C, 50 mM MgCl2; with or without CoA preincubation
T2 construct: synthetic gene, modified pRSF-Duet1, E. coli host; partly acylated (mainly pentanoyl) as purified
T2 sequence (O84242 2-327): T1 sequence (O84242 2-327)

[3] = target: T1, acyl-modification-free ctFabH; assay: intact protein LC/MS; MS/MS of tryptic peptides; type: binding; details: covalent; active site cysteine; 10 µM protein, 50 µM compound, pH 7.0, 10 min to 1 h
in vitro = assay: in vitro; set-up: Viability of infected HeLa host cells, resazurin conversion, bulk resorufin fluorescence relative to DMSO; details: human, hela cells; bulk resorufin, mean of 3
[4] = test system: T3, C. trachomatis L2/434/Bu expressing GFP (CTL2-GFP); assay: microbe, parasite or virus in culture; set-up: C. trachomatis GFP growth in infected HeLa cells, bulk GFP fluorescence normalised to DMSO; details: Chlamydia trachomatis, HeLa, 26 h; read-out: IC50 (µM), bulk GFP fluorescence
T3 construct: L2/434/Bu GFP intracellular growth in HeLa cells
Protocol: (§1) MICs were calculated as described above.

[5] = test system: T3, C. trachomatis L2/434/Bu expressing GFP (CTL2-GFP); assay: microbe, parasite or virus in culture; set-up: C. trachomatis total inclusion area by high-content imaging, normalised to DMSO; details: Chlamydia trachomatis, HeLa, 28.5 h; read-out: IC50 (µM), total inclusion area
How it was run: (§2)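 Infected cells treated with library compounds were read for bulk GFP (chlamydial growth) and resorufin fluorescence (host viability), then fixed, Hoechst-stained and imaged. Inclusion area and number from GFP, plus nuclei counts, served as additional growth and viability proxies; MICs derived as previously described.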

[6] = test system: T4, CTL2-GFP (C. trachomatis L2/434/Bu, GFP-expressing); assay: microbe, parasite or virus in culture; set-up: C. trachomatis growth in HeLa, dose-response, mean of bulk GFP fluorescence and imaged total inclusion area; details: Chlamydia trachomatis, HeLa, 28.5 h; mean of GFP and inclusion area
T4 construct: L2/434/Bu, GFP-expressing
How it was run: as §2

B. adolescentis = test system: T5, B. adolescentis; assay: microbe, parasite or virus in culture; set-up: Microbial growth in liquid dilution assay, OD600 relative to DMSO control; details: Bifidobacterium adolescentis; estimated IC50; read-out: B. adolescentis, IC50 (µM) estimate
T5 construct: DSM 20083
How it was run: (§3)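 Inhibition zones were the read-out of the radial diffusion assay, taken after bacteria had been exposed to compound for 24–48 h. Liquid dilution testing of commensal growth was also done, with 30 µM among the concentrations.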

B. thetaiotaomicron = test system: T6, B. thetaiotaomicron; assay: microbe, parasite or virus in culture; set-up: Microbial growth in liquid dilution assay, OD600 relative to DMSO control; details: Bacteroides thetaiotaomicron; estimated IC50; read-out: B. thetaiotaomicron, IC50 (µM) estimate
T6 construct: DSM 2079
How it was run: as §3

E. coli = test system: T7, E. coli; assay: microbe, parasite or virus in culture; set-up: Microbial growth in liquid dilution assay, OD600 relative to DMSO control; details: Escherichia coli; estimated IC50; read-out: E. coli, IC50 (µM) estimate
T7 construct: DSM 301
How it was run: as §3

E. faecalis = test system: T8, E. faecalis; assay: microbe, parasite or virus in culture; set-up: Microbial growth in liquid dilution assay, OD600 relative to DMSO control; details: Enterococcus faecalis; estimated IC50; read-out: E. faecalis, IC50 (µM) estimate
T8 construct: DSM 20478
How it was run: as §3

L. reuteri = test system: T9, L. reuteri; assay: microbe, parasite or virus in culture; set-up: Microbial growth in liquid dilution assay, OD600 relative to DMSO control; details: Limosilactobacillus reuteri; estimated IC50; read-out: L. reuteri, IC50 (µM) estimate
T9 construct: DSM 20016
How it was run: as §3

L. crispatus = test system: T10, L. crispatus; assay: microbe, parasite or virus in culture; set-up: Microbial growth in liquid dilution assay, OD600 relative to DMSO control; details: Lactobacillus crispatus; estimated IC50; read-out: L. crispatus, IC50 (µM) estimate
T10 construct: DSM 20584

L. iners = test system: T11, L. iners; assay: organism not typed; set-up: Microbial growth in liquid dilution assay, OD600 relative to DMSO control; details: estimated IC50; read-out: L. iners, IC50 (µM) estimate
T11 construct: DSM 13335

G. vaginalis = test system: T12, G. vaginalis; assay: microbe, parasite or virus in culture; set-up: Microbial growth in liquid dilution assay, OD600 relative to DMSO control; details: Gardnerella vaginalis, read-out: G. vaginalis, IC50 (µM) estimate
T12 construct: DSM 4944

C. albicans = test system: T13, C. albicans; assay: microbe, parasite or virus in culture; set-up: Microbial growth in liquid dilution assay, OD600 relative to DMSO control; details: Candida albicans, read-out: C. albicans, IC50 (µM) estimate
T13 construct: DSM 1577

[7] = test system: T3, C. trachomatis L2/434/Bu expressing GFP (CTL2-GFP); assay: microbe, parasite or virus in culture; set-up: species or system HeLa; C. trachomatis GFP growth in infected HeLa cells, bulk GFP fluorescence normalised to DMSO; details: Chlamydia trachomatis, 26 h; read-out: MIC (µM), bulk GFP fluorescence
Protocol: as §1

[8] = test system: T3, C. trachomatis L2/434/Bu expressing GFP (CTL2-GFP); assay: microbe, parasite or virus in culture; set-up: species or system HeLa; C. trachomatis total inclusion area by high-content imaging, normalised to DMSO; details: Chlamydia trachomatis, 28.5 h; read-out: MIC (µM), total inclusion area
Description: We screened a library of 36,785 small molecules displaying drug-like properties and covering a wide chemical space (Fig 1A and S2A Data). In this process, we also complemented the assay described above with an imaging-based readout (Fig 1B). After measurements of bulk GFP and resorufin fluorescence, cells were fixed, stained with the DNA dye Hoechst, and imaged at a high-content imaging platform to detect chlamydial inclusions (GFP) and host cell nuclei (Hoechst). The total area and number of inclusions in individual wells and the number of nuclei then served as additional proxies for chlamydial growth and host cell viability. […] MICs were calculated as described above.

[9] = test system: T4, CTL2-GFP (C. trachomatis L2/434/Bu, GFP-expressing); assay: microbe, parasite or virus in culture; set-up: species or system HeLa; C. trachomatis growth in HeLa, dose-response, mean of bulk GFP fluorescence and imaged total inclusion area; details: Chlamydia trachomatis, 28.5 h; mean of GFP and inclusion area
How it was run: as §2

In the case of `CC[C@H](C)C(=O)SCCNC(=O)CCNC(=O)[C@H](O)C(C)(C)COP(=O)(O)OP(=O)(O)OC[C@H]1O[C@@H](n2cnc3c(N)ncnc32)[C@H](O)[C@@H]1OP(=O)(O)O` [2-methylbutyryl-CoA], the “intact protein LC/MS” value [1] is reported as “incubation of this stripped ctFabH with 2-methylbutyryl-CoA or isovaleryl-CoA”.
For `O=C1Oc2nc3ccccc3cc2CN1C1CC1` [c1e], the inhibition [2] was “c1e displayed inhibitory activity towards ctFabH when added at about equimolar concentration”, the “intact protein LC/MS; MS/MS of tryptic peptides” value [3] was “incubation with c1e generated an FabH-c1e adduct” and the viability at 28.5 h, 0.000416667 µM (in vitro) was 95.3%. For the same molecule, the viability at 28.5 h, 0.00125 µM (in vitro) was 82.8%, the viability at 28.5 h, 0.00375 µM (in vitro) was 88.7% and the viability at 28.5 h, 0.0123333 µM (in vitro) was 87.6%. It also gave a viability at 28.5 h, 0.037 µM (in vitro) of 93.9%, a viability at 28.5 h, 0.111 µM (in vitro) of 89.2% and a viability at 28.5 h, 0.333 µM (in vitro) of 91.7%. The viability at 28.5 h, 1 µM (in vitro) was 89.5%, the viability at 28.5 h, 3 µM (in vitro) was 98.2% and the viability at 28.5 h, 10 µM (in vitro) was 103%. For the same molecule, the viability at 28.5 h, 30 µM (in vitro) was 46.5%, the IC50 [4] was 0.0226 µM and the IC50 [5] was 0.0199 µM. It also gave an IC50 [6] of 0.0213 µM, an IC50 (B. adolescentis) greater than 30 µM and an IC50 (B. thetaiotaomicron) greater than 30 µM. The IC50 (E. coli) was greater than 30 µM, the IC50 (E. faecalis) was greater than 30 µM and the IC50 (L. reuteri) was greater than 30 µM. The IC50 (L. crispatus) was greater than 30 µM, the IC50 (L. iners) was greater than 30 µM and the IC50 (G. vaginalis) was greater than 30 µM. For the same molecule, the IC50 (C. albicans) was greater than 30 µM, the MIC [7] was 0.038 µM (≈ 0.00913 µg/mL) and the MIC [8] was 0.046 µM (≈ 0.0111 µg/mL). For the same molecule, the MIC [9] was 0.042 µM (≈ 0.0101 µg/mL).
